Measured values reported in patent publication US9872875B2, “Component and method for treating viral disease” (Institut Pasteur of Shanghai, Chinese Academy of Sciences, priority 2012, dated 2018).
Where two headings read alike, the source gives them in different places.

Assays:
[1] = system: EV71 clinical isolate (EV71 FY 573); experiment: EV71 clinical isolate replication in RD cells, viral load by quantitative RT-PCR; format: cell-based, Enterovirus 71
Procedure: RD cells were infected with EV71 clinical isolate (EV71 FY 573) in different E02 concentrations, at the MOI (multiplicity of infection) of 0.1. At 46 h post infection, viral RNA in culture supernatant was extracted, and the relative EV71 viral load was determined by quantitative RT-PCR. Procedures are detailed as follows:
(1) Cell seeding: 24 h prior to infection, RD cells were seeded in 96-well cell culture plates, 5×10^4 cells per well.
(2) Infection: • a. Virus pre-incubated with drug: virus stock solution was diluted to 5×10^4 TCID50/ml with DMEM and dispensed to 96-well plates at 100 μl per well, and 11 μl of E02 dissolved in DMEM at corresponding concentration or DMEM was added, and incubated at 37° C. for 1 h; • b. Cells pre-incubated with drug: cell culture medium was removed from 96-well plates, each well was added 100 μl of DMEM, then added 11 μl of E02 solution at corresponding concentration or DMEM, and incubated at 37° C. for 1 h; • c. After 1 h incubation, drug was discarded from cell culture plates, 111 μl of virus pre-incubated with drug was transferred to cell culture plates, and incubated at 37° C. for 1 h; • d. After incubation, the supernatant was discarded, cells were washed twice with 50 μl of DMEM, each well was added 180 μl of DMEM containing 2% FBS, 20 μl of E02 solution at corresponding concentration or DMEM. Cell culture plates were placed in 37° C., 5% (v/v) carbon dioxide incubator for incubation.
(3) Harvesting virus and RNA extraction: after infection, cells were cultured for 46 h, 140 μl of supernatant was transferred to 96-deep well plates, viral RNA extraction was performed using viral RNA extraction kit (QIAGEN QIAamp Viral RNA Mini Kit, cat #52906) according to standard operating procedures of the kit.
(4) Viral load measurements: EV71 5′UTR gene was detected using ABI Taqman one-step RT-PCR kit (ABI TaqMan® One-Step RT-PCR, cat #4309169) of ABI 7900HT 384-well plates PCR system. EV71 5′UTR quantitative RT-PCR thermal cycling program (Taqman);
(5) PCR CT values were converted to viral load using PCR standard curves (standard curves were obtained by CT values determined by performing RT-PCR on RNA extracted from viruses serially diluted with defined titers at 10-fold).

[2] = Toxicity in ICR newborn mice; format: in vivo; conditions: 50 mg/kg or 20 mg/kg intraperitoneally daily for 4 consecutive days
Procedure: Three-day-old ICR mice were injected intraperitoneally and daily with 50 μl of E02 at a dose of 50 mg/kg, 20 mg/kg, or 50 μl of DMEM for 4 consecutive days.

P2X3 receptor = biological target: T1, P2X3 receptor (Homo sapiens, UniProt P56373); conditions: Table 8, antagonists; cited from earlier work
T1 sequence (P56373 1-397): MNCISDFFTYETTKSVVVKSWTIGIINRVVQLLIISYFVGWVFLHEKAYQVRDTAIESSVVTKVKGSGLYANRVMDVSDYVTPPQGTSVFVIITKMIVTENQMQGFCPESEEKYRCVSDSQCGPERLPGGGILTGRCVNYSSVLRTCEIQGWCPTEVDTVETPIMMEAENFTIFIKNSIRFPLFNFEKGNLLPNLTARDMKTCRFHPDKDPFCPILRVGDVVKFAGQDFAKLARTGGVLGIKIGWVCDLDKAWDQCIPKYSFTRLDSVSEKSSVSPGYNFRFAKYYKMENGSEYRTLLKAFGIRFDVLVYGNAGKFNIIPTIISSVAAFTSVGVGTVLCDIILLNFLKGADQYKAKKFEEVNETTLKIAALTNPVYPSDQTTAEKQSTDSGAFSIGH

P2X6 receptor = P2X6 receptor (Homo sapiens, UniProt O15547); parameters: key: −: no activity; +: activating concentration >10 μM; ++: activating concentration 1~10 μM; +++: activating concentration <1 μM; conditions: Table 8, antagonists; cited from earlier work
Chain of P2X6 receptor (O15547 whole entry): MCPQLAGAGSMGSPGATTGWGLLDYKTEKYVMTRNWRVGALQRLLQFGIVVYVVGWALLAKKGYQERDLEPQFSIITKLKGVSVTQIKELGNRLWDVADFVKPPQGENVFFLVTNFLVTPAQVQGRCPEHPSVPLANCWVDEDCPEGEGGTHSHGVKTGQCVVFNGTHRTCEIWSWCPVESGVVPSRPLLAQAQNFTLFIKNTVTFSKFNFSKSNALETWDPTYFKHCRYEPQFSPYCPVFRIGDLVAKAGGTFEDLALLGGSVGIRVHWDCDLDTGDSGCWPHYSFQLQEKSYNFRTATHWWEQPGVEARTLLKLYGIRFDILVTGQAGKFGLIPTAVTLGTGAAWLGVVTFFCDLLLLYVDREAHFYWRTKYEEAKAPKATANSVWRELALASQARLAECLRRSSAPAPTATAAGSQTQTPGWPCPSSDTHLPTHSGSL

[3] = system: EV71 clinical isolate (EV71 FY 573); experiment: EV71 infection in ICR newborn mice, serum viral load; format: in vivo; conditions: 50 mg/kg E02 intraperitoneally; 5 days after infection; infection group average 15.0
Procedure: EV71 clinical isolate (EV71 FY 573) was used to infect three-day-old newborn ICR mice to test E02's efficacy to inhibit EV71 in vivo. Test mice were divided into three groups: drug group, infection group, and placebo group. When mice were two-day-old, drug group were intraperitoneally injected with 50 μl of E02 at a dose of 50 mg/kg. Infection group and placebo group were intraperitoneally injected with 50 μl of DMEM. When three-day-old, drug group was intraperitoneally injected with a mixture (50 μl) of E02 at a dose of 50 mg/kg and EV71 clinical isolate at a dose of 5×10^7 TCID50. Infection group was injected with a mixture of 5×10^7 TCID50 viruses (25 μl) and 25 μl of DMEM. Placebo group was injected with 50 μl of DMEM.
5 days after infection, blood was collected and serum was separated. Viral RNA in serum was extracted (viral RNA extraction kit, QIAGEN QIAamp Viral RNA Mini Kit, cat #52906). Copies of EV71 5′UTR gene and GAPDH gene were detected using one-step real-time quantitative RT-PCR kit (QIAGEN QuantiTect SYBR Green RT-PCR Kit) in ABI 7900HT 384-well plates PCR system.

RD cells = experiment: Cytotoxicity to RD cells (Celltiter Glo); format: cell-based
Procedure: Cytotoxicity to RD cells at different E02 concentrations was measured using Celltitr Glo reagents as follows:
(1) Cells seeding: 24 h prior to testing, RD cells were seeded in 96-well cell culture plates at 5×10^4 per well;
(2) Cells incubated with E02: medium was removed from cell culture plates, 180 μl of DMEM containing 2% FBS was added, and then added 20 μl of DMEM solution with corresponding concentration of E02, placed in 37° C., 5% CO2 incubator for incubation;
(3) After cultured for 46 h, cellular ATP levels were measured using the PROMEGA Celltitr Glo reagents according to reagent instructions.
PPADS is an E02 analog (Khakh, Burnstock et al., 2001; Burnstock 2004; Coddou, Yan et al. 2011) and has a similar inhibitory effect on P2X subtypes to that of E02. RD cells were infected with EV71 clinical isolate FY 573 at different PPADS concentrations to determine the inhibitory effect of PPADS on EV71 replication. Detailed procedure is the same as that in “1” of Example 1. In addition, cytotoxicity to RD cells at each concentration of PPADS was determined. Detailed procedure is the same as that in “1” of Example 6.

Row | Compound | concentration at which EV71 replication is reduced 10-fold ([1]; EV71 FY 573, RD cells, 46 h) | concentration at which EV71 replication is reduced 100-fold ([1]; EV71 FY 573, RD cells, 46 h) | concentration at which EV71 replication is reduced 1,000-fold ([1]; EV71 FY 573, RD cells, 46 h) | concentration at which EV71 replication is reduced 10,000-fold ([1]; EV71 FY 573, RD cells, 46 h) | EC50 ([1]; Enterovirus A, EV71, RD, 46 h, read-out: EC50 (50% effective concentration) for inhibiting EV71 replication in RD cells) | EC50 ([1]; Enterovirus A, EV71, RD cells, summary over RT-PCR, TCID50 and PFU tests, read-out: EC50 that inhibits EV71 clinical isolate (summary of Examples 1-3)) | toxicity in three-day-old ICR mice [2] | P2X receptors 3 (P2X3 receptor) | P2X receptors 6 (P2X6 receptor) | RNA loading ratio between EV71 and GAPDH in serum, average value of drug group [3] | cytotoxicity to RD cells (RD cells; 1×10^−6 to 1×10^4 μM of E02, 46 h, cellular ATP) | EC50 ([1]; EV71 FY 573, MOI 0.1, 46 h, viral RNA in supernatant, read-out: EC50 (50% effective concentration) for inhibiting EV71 replication in RD cells) | concentrations not cytotoxic to RD cells (RD cells; PPADS)
1 | Cc1ccc(C(=O)Nc2ccc(S(=O)(=O)O)c3cc(S(=O)(=O)O)cc(S(=O)(=O)O)c23)cc1NC(=O)c1cccc(NC(=O)Nc2cccc(C(=O)Nc3cc(C(=O)Nc4ccc(S(=O)(=O)O)c5cc(S(=O)(=O)O)cc(S(=O)(=O)O)c45)ccc3C)c2)c1 [E02, Suramin Sodium] | 3.44 μM | 5.19 µM | 6.45 µM | 7.63 µM | 6.93 µM | < 6.93 µM | No toxicity was observed | + (+: inhibitory concentration >300 nM) | − | 1.8 | no cytotoxicity |  | 
2 | Cc1nc(N=Nc2ccc(S(=O)(=O)O)cc2S(=O)(=O)O)c(COP(=O)(O)O)c(C=O)c1O [PPADS, pyridoxal-phosphate-6-azophenyl-2′, 4′-disulphonic acid] |  |  |  |  |  |  |  | ++ (++: inhibitory concentration = 10~300 nM) | + (+: inhibitory concentration >300 nM) |  |  | 18.9 µM | lower than 64 μM
